ChEMBL document CHEMBL1201862, “PubChem BioAssay data set” (2004)
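Protocol summary: plate cells (96-well), add compound at 5 concentrations, incubate 48 h, interpolate endpoints linearly. GI50 is the concentration that inhibits growth by half.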 Activity calls are given as the source filed them. No stated cut-off is given here; in the data, active = GI50 up to about 1.1 µM and inactive = higher.

Legend:
Experiment in all cases: NCI anticancer screen, dose series, 48 h
M14 = tested on: M14
U-251 = tested on: U-251
HT-29 = tested on: HT-29
OVCAR-3 = tested on: OVCAR-3
SNB-75 = tested on: SNB-75
IGROV-1 = tested on: IGROV-1
A498 = tested on: A498
CCRF-CEM = tested on: CCRF-CEM
PC-3 = tested on: PC-3
SF-268 = tested on: SF-268
KM12 = tested on: KM12
LOX IMVI = tested on: LOX IMVI
786-0 = tested on: 786-0
SN12C = tested on: SN12C
HCC 2998 = tested on: HCC 2998
MCF7 = tested on: MCF7
SF-539 = tested on: SF-539
T47D = tested on: T47D
SK-MEL-2 = tested on: SK-MEL-2
SF-295 = tested on: SF-295

SMILES	GI50 (M14)	GI50 (U-251)	GI50 (HT-29)	GI50 (OVCAR-3)	GI50 (SNB-75)	GI50 (IGROV-1)	GI50 (A498)	GI50 (CCRF-CEM)	GI50 (PC-3)	GI50 (SF-268)	GI50 (KM12)	GI50 (LOX IMVI)	GI50 (786-0)	GI50 (SN12C)	GI50 (HCC 2998)	GI50 (MCF7)	GI50 (SF-539)	GI50 (T47D)	GI50 (SK-MEL-2)	GI50 (SF-295)
C=C(C)[C@@H]1CC[C@]2(C)CC[C@]3(C)[C@H](CC[C@@H]4[C@@]5(C)CC[C@H](OC(=O)c6ccccc6)C(C)(C)[C@@H]5CC[C@]43C)[C@@H]12	> 100 µM (inactive)	> 100 µM (inactive)	> 100 µM (inactive)	> 100 µM (inactive)	90.8 µM (inactive)	> 100 µM (inactive)	> 100 µM (inactive)	> 100 µM (inactive)	> 100 µM (inactive)	> 100 µM (inactive)	> 100 µM (inactive)	> 100 µM (inactive)	> 100 µM (inactive)	> 100 µM (inactive)	> 100 µM (inactive)	> 100 µM (inactive)	> 100 µM (inactive)	> 100 µM (inactive)	> 100 µM (inactive)	> 100 µM (inactive)
O=c1c2cc3c(cc2[nH]c2ncccc12)OCO3	> 10 µM (inactive)	> 10 µM (inactive)	> 10 µM (inactive)	> 10 µM (inactive)	> 10 µM (inactive)	> 10 µM (inactive)	> 10 µM (inactive)	> 10 µM (inactive)	> 10 µM (inactive)	> 10 µM (inactive)	> 10 µM (inactive)	> 10 µM (inactive)	> 10 µM (inactive)	> 10 µM (inactive)	> 10 µM (inactive)	> 10 µM (inactive)	> 10 µM (inactive)	> 10 µM (inactive)	> 10 µM (inactive)	> 10 µM (inactive)
O=C(/C=C/c1ccc(Cl)c(Cl)c1)CCN1CCN(CCC(=O)/C=C/c2ccc(Cl)c(Cl)c2)CC1	17.8 µM (inactive)	13.9 µM (inactive)	17.7 µM (inactive)	23.6 µM (inactive)	31.9 µM (inactive)	17 µM (inactive)	34.9 µM (inactive)	6.59 µM (inactive)	20.1 µM (inactive)	35.4 µM (inactive)	12.5 µM (inactive)	13 µM (inactive)	6.9 µM (inactive)	26.3 µM (inactive)	14.1 µM (inactive)	4.04 µM (inactive)	14.4 µM (inactive)	24.8 µM (inactive)	26.7 µM (inactive)	19.7 µM (inactive)
Cc1cccc(NC(=S)N/N=C(/c2ccccc2)c2ccccn2)c1	< 0.01 µM (active)	0.0299 µM (active)	0.0285 µM (active)	< 0.0182 µM (active)	0.991 µM (active)	< 0.0182 µM (active)	1.98 µM (inactive)	< 0.01 µM (active)	< 0.0143 µM (active)	0.0863 µM (active)	0.0796 µM (active)	0.0224 µM (active)	0.948 µM (active)	0.359 µM (active)	2.84 µM (inactive)	< 0.0172 µM (active)	1.31 µM (inactive)	0.0579 µM (active)	2.49 µM (inactive)	0.173 µM (active)
CC(=O)OC12c3ccccc3-c3ccccc3C1C1C(=O)N(C)C(=O)C12Cl (stereo not given)	> 10 µM (inactive)	> 10 µM (inactive)	> 10 µM (inactive)	> 10 µM (inactive)	> 10 µM (inactive)	> 10 µM (inactive)	> 10 µM (inactive)	> 10 µM (inactive)	> 10 µM (inactive)	> 10 µM (inactive)	> 10 µM (inactive)	> 10 µM (inactive)	> 10 µM (inactive)	> 10 µM (inactive)	> 10 µM (inactive)	> 10 µM (inactive)	> 10 µM (inactive)	> 10 µM (inactive)	> 10 µM (inactive)	> 10 µM (inactive)
[N-]=[N+]=C1C(=O)c2ccccc2-c2ccccc21	44.6 µM (inactive)	31.3 µM (inactive)	34.8 µM (inactive)	40.9 µM (inactive)	20 µM (inactive)	33 µM (inactive)	16.3 µM (inactive)	20.2 µM (inactive)	25.8 µM (inactive)	33.3 µM (inactive)	39.2 µM (inactive)	25.9 µM (inactive)	26.1 µM (inactive)	35.2 µM (inactive)	51.3 µM (inactive)	25.9 µM (inactive)	24.6 µM (inactive)	28.3 µM (inactive)	29.4 µM (inactive)	33 µM (inactive)
N#CC(C#N)=C(N)/C(C#N)=C/c1cc(O)c(O)c(Br)c1	> 75.9 µM (inactive)	53 µM (inactive)	37.4 µM (inactive)	27.5 µM (inactive)	52.7 µM (inactive)	> 65.2 µM (inactive)	> 100 µM (inactive)	28.2 µM (inactive)	92.5 µM (inactive)	> 62.5 µM (inactive)	75.9 µM (inactive)	42 µM (inactive)	> 78.2 µM (inactive)	> 69.3 µM (inactive)	> 74 µM (inactive)	49.4 µM (inactive)	44.1 µM (inactive)	32.7 µM (inactive)	90.6 µM (inactive)	> 82 µM (inactive)
CC(=O)Nc1nc(C)c(S(=O)(=O)NC(=O)NC2NC(=O)NC2=O)s1 (stereo not given)	> 100 µM (inactive)	> 100 µM (inactive)	> 100 µM (inactive)	> 100 µM (inactive)	> 100 µM (inactive)	> 100 µM (inactive)	> 100 µM (inactive)	> 100 µM (inactive)	> 100 µM (inactive)	> 100 µM (inactive)	> 100 µM (inactive)	> 100 µM (inactive)	> 100 µM (inactive)	> 100 µM (inactive)	> 100 µM (inactive)	> 100 µM (inactive)	> 100 µM (inactive)	> 100 µM (inactive)	> 100 µM (inactive)	> 100 µM (inactive)
O=C1NC(c2cccc(OCc3ccccc3)c2)Nc2ccccc21 (stereo not given)	0.181 µM (active)	0.232 µM (active)	0.12 µM (active)	0.1 µM (active)	0.0703 µM (active)	0.5 µM (active)	0.259 µM (active)	0.0479 µM (active)	0.162 µM (active)	0.541 µM (active)	17.5 µM (inactive)	0.252 µM (active)	0.286 µM (active)	0.119 µM (active)	0.243 µM (active)	0.034 µM (active)	0.201 µM (active)	19.1 µM (inactive)	1.67 µM (inactive)	0.114 µM (active)
